According to ChEMBL document CHEMBL1152075, “Synthesis and SAR of diiodotyrosine-derived glycine-site N-methyl-D-aspartate receptor ligands” (Bioorg Med Chem Lett, 1996):

Key:
Glutamate NMDA receptor = assay: Ability to displace [3H]L-689560 from NMDA receptor glycine site in rat brain membranes; assay type: cell membranes
Rattus norvegicus = species on record: Rattus norvegicus; assay: In vitro antagonist potency was determined by blockade of NMDA- induced depolarizations on rat cortical slices; assay type: functional

IC50 (Glutamate NMDA receptor)	SMILES	Kb (Rattus norvegicus)
7300 nM	N[C@H](Cc1ccc(OCCc2ccccc2)c(I)c1)C(=O)O	–
460 nM	N[C@H](Cc1cc(I)c(OCCc2ccncc2)c(I)c1)C(=O)O	670 nM
> 100000 nM	CC(=O)N[C@H](Cc1cc(I)c(OCCc2ccc(O)cc2)c(I)c1)C(=O)O	–
100000 nM	N[C@H](Cc1ccc(OCCc2ccccc2)cc1)C(=O)O	–
790 nM	N[C@H](Cc1cc(I)c(OCc2ccccc2)c(I)c1)C(=O)O	–

The remaining lines, values behind:

SMILES	IC50 (Glutamate NMDA receptor)	Kb (Rattus norvegicus)
N[C@H](Cc1cc(I)c(OCCc2ccccc2)c(I)c1)C(=O)O	510 nM	–
NC(Cc1cc(I)c(OCCc2ccc(O)cc2)c(I)c1)C(=O)O (configuration not stated)	900 nM	–
N[C@H](Cc1cc(I)c(OCCc2ccc(O)cc2)c(I)c1)C(=O)O	–	2200 nM
N[C@H](Cc1cc(I)c(O)c(I)c1)C(=O)O	100000 nM	–
CCOc1c(I)cc(C[C@@H](N)C(=O)O)cc1I	1500 nM	–
N[C@@H](Cc1cc(I)c(OCCc2ccc(O)cc2)c(I)c1)C(=O)O	> 100000 nM	–
N[C@H](Cc1cc(I)c(OCCc2cccc(O)c2)c(I)c1)C(=O)O	350 nM	2500 nM
COC(=O)[C@H](N)Cc1cc(I)c(OCCc2ccc(O)cc2)c(I)c1	100000 nM	–
N[C@H](Cc1cc(I)c(Oc2ccc(O)cc2)c(I)c1)C(=O)O	4100 nM	–
N[C@H](Cc1cc(I)c(Oc2cc(I)c(O)c(I)c2)c(I)c1)C(=O)O [DEXTROTHYROXINE]	330 nM	–
